Measured values reported in US20080176963A1, “TREATMENT OF BRAIN DISORDERS OF THE STRIATUM” (priority 2007, published 2008).
Where two headings read alike, the source gives them in different places.

What was measured:
6-OHDA-treated mice [1] = assay type: in vivo, mouse
Description: (§1) Dopamine depletion and behaviour. Reserpine was administered i.p. at a concentration of 1 or 5 mgkg^−1, and electrophysiological and behavioural experiments were performed 18-24 h after injections. 6-Hydroxydopamine was injected bilaterally into the median forebrain bundle at a concentration of 5 μg μl^−1 to a total volume of 2 μL per side, and experiments were performed 48-60 h after injections. Catalepsy was measured with the bar test. Descent latency represents the time in seconds required for the mouse either to remove both paws from a bar (diameter 2 mm) placed 4 cm above the ground, or for one paw to touch the ground. Horizontal locomotor activity was measured in 15-min blocks with the ENV-510 test chamber and Activity Monitor software. Animals were tested 45-60 min after drug administration. All procedures involving animals were approved by the Institutional Animal Care and Use Committee.
(§2) 6-hydroxydopamine treatment Bilateral lesions of the substantia nigra pars compacta were achieved by injecting 6-OHDA Bromide (Sigma-Aldrich) into the right and left medial forebrain bundles. Mice were anesthetized with i.p. injections of ketamine (100 mg/kg)/xylazine (10 mg/kg) and placed into a stereotactic frame. 6-OHDA was prepared immediately before injections at a concentration of 5 μg/μL in 0.02% ascorbic acid. Injections were performed using 33 gauge cannulae (Plastics One) attached to a syringe pump (Harvard Apparatus) running at 0.5 μL/min, to a total volume of 2 μL/side at the following coordinates: AP: −1.5 mm; ML±1 mm; DV: 4.8 mm. Brain slices were obtained from 6-OHDA treated animals at 48-60 hour after injections.
(§3) Behavior. 3- to 4-week-old C57/BL6 wild-type mice were injected with reserpine (1 mg/kg i.p.) or 6-OHDA as described above. […] Animals were tested 18-24 hours after reserpine injections and 48-60 hours after 6-OHDA injections. […]
(§4) To test catalepsy, a horizontal bar (2 mm diameter) was placed 4 cm above the ground. […] Descent latency was measured as the delay to when either both paws were removed from the bar or one paw touched the ground. […]

tyrosine hydroxylase = experiment: Tyrosine hydroxylase staining of striatum after 6-OHDA; assay type: in vivo, mouse; settings: 48 hours after bilateral 6-OHDA injection (5 μg/μL, 2 μL/side)
Description: as §2
Tyrosine hydroxylase staining. The degree of dopamine denervation was assessed at 48 hours post-injection in a subset of 6-OHDA-treated mice by tyrosine hydroxylase (TH) staining. Mouse forebrains were fixed at 4° C. for 1 hour in 4% paraformaldehyde (in PBS), and then kept in PBS overnight at 4° C. Brains were transferred to 30% sucrose (in PBS) for 2 hours, blocked in O.C.T. and frozen. […] coronal slices containing the striatum were collected on slides using a cryostat. […] Images were acquired on a Zeiss Axioskop 2 coupled to a Hamamatsu CCD and analyzed using Metamorph software.

[2] = system: indirect-pathway MSN synapses; assay type: cell-based, mouse
6-OHDA-treated mice [3] = settings: mouse, in vivo
Description: as §1, §2, §3, §4

[4] = system: indirect-pathway synapses; experiment: DHPG-elicited depression of EPSCs (eCB-LTD), indirect pathway; assay type: cell-based, mouse
direct-pathway synapses [5] = experiment: DHPG-elicited depression of EPSCs (eCB-LTD), direct pathway; assay type: cell-based, mouse; settings: DHPG 100 μM for 10 min, MSNs held at +50 mV (so in the source)
reserpine-treated mice [6] = experiment: Catalepsy bar test in reserpine-treated mice; assay type: in vivo, mouse
Description: as §1
(§5) Reserpine treatment. To study the effects of dopamine depletion, reserpine (Sigma-Aldrich) was dissolved in 1% glacial acetic acid at a concentration of 2.5 mg/mL. This solution was diluted with dH20 by a factor of 10, to yield a final concentration of 0.1% glacial acetic acid and 250 μg/mL reserpine This reserpine solution was injected i.p. at a concentration of 1 mg/kg or 5 mg/kg as stated in the text.
(§6) Behavior. 3- to 4-week-old C57/BL6 wild-type mice were injected with reserpine (1 mg/kg i.p.) or 6-OHDA as described above. […] Animals were tested 18-24 hours after reserpine injections and 48-60 hours after 6-OHDA injections. […] All drugs were injected i.p. in 0.9% NaCl at a volume of 20 μL/gm. The injection solution for URB597 was prepared by diluting a stock solution prepared in DMSO into saline, with a final concentration of 0.5% DMSO. Animals were then tested again at 45-60 minutes following drug injections. […]
as §4

[7] = system: indirect-pathway MSN synapses; experiment: LTD induced by tetanic stimulation in striatal slices from reserpine-treated mice; assay type: cell-based, mouse
reserpine-treated mice [8] = experiment: Open-field locomotor activity in reserpine-treated mice; assay type: in vivo, mouse
Description: as §1, §5, §6, §4

medium spiny neurons = experiment: Effect of drug wash-in alone on EPSC amplitudes in striatal MSNs; assay type: cell-based, mouse; settings: URB597 1 μM; URB754 5 μM
direct pathway neurons = experiment: LTD induction at direct pathway synapses in striatal slices; assay type: cell-based, mouse; settings: URB754 5 μM
direct-pathway synapses [9] = experiment: Presynaptic inhibition of EPSCs by CB1 receptor agonist, direct pathway; assay type: cell-based, mouse; settings: WIN55,212 1 μM; control mice
[10] = system: indirect-pathway synapses; experiment: Presynaptic inhibition of EPSCs by CB1 receptor agonist, indirect pathway; assay type: cell-based, mouse; settings: WIN55,212 1 μM
MSNs = experiment: Block of carbachol-induced inward membrane current in MSNs; assay type: cell-based, mouse; settings: pirenzepine; data not shown
Excerpt: FIG. 5. […] The arrow marks the time of LTD induction. […] Error bars are ±SEM.

striatal dopamine = settings: 18-24 hours after reserpine injection; cited from earlier work
[11] = system: indirect-pathway MSN synapses; experiment: LTD induced by high-frequency afferent stimulation, whole-cell recording in striatal slices of control mice; assay type: cell-based, mouse; settings: indirect-pathway MSNs; AM251 1 μM; sulpiride 10 μM; methysergide 4 μM, GR125487 1 μM, LY278584 1 μM, prazosin 2 μM, propranolol 1 μM; without drug 51±5%

For `NCCc1cc(O)c(O)cc1O` [6-OHDA, 6-hydroxydopamine], the “Descent latency, catalepsy bar test” value (6-OHDA-treated mice [1]; mouse, in vivo) was 45 ± 4 s, the “Immunoreactivity for tyrosine hydroxylase in the striatum” value (tyrosine hydroxylase) was 34±4 % of control and the “EPSC after LTD induction, % of baseline at 30-40 min” value (shortened to “EPSC after LTD induction, %”) [2] was 111±13 % of baseline. The “Distance traveled in 15 min, open field” value (6-OHDA-treated mice [3]) was 236±52 cm.
For `N[C@H](C(=O)O)c1cc(O)cc(O)c1` [DHPG, (S)-3,5-dihydroxyphenylglycine], the “EPSC, % of baseline at 20-30 min after brief DHPG application” value ([4]; DHPG 100 μM for 1 min, alone or in the presence of quinpirole 10 μM or URB754) was 98±5 % of baseline, the “EPSC, % of baseline at 30-40 min” value ([4]; DHPG 100 μM for 10 min, MSNs held at +50 mV (so in the source)) was 64±5 % of baseline and the “EPSC, % of baseline at 30-40 min” value (direct-pathway synapses [5]) was 95±9 % of baseline.
In the case of `NC(=O)c1cccc(-c2cccc(OC(=O)NC3CCCCC3)c2)c1` [URB597], the “Descent latency, catalepsy bar test” value (reserpine-treated mice [6]; mouse, in vivo) is reported as “no significant decrease in catalepsy”, the “Descent latency, catalepsy bar test” value (6-OHDA-treated mice [1]; mouse, in vivo) is reported as “no significant decrease in catalepsy” and the “EPSC after LTD induction, %” value [7] is reported as 62±5 % of baseline. The “Distance traveled in 15 min, open field” value (reserpine-treated mice [8]; mouse, in vivo) was “no significant decrease in catalepsy or increase in locomotor activity”, the “EPSC after LTD induction, %” value [2] was 55±7 % of baseline and the “Distance traveled in 15 min, open field” value (6-OHDA-treated mice [3]) was “no significant decrease in catalepsy or increase in locomotor activity”. For the same compound, the “Effect of drug alone on EPSC amplitudes / synaptic transmission” value (medium spiny neurons) was “no effect”.
In the case of `Cc1ccc(Nc2nc3ccc(C)cc3c(=O)o2)cc1` [URB754], the “Descent latency, catalepsy bar test” value (reserpine-treated mice [6]; reserpine-treated mice, URB754 1.5 mg/kg i.p., quinpirole 1.5 mg/kg i.p., alone or coadministered) is reported as “no significant decrease in catalepsy”, the “LTD at direct pathway neurons in the presence of drug” value (direct pathway neurons) is reported as “nor did it unmask LTD” and the “Descent latency, catalepsy bar test” value (6-OHDA-treated mice [1]; 6-OHDA-treated mice, URB754 1.5 mg/kg i.p., quinpirole 1.5 mg/kg i.p., alone or coadministered) is reported as “no significant decrease in catalepsy”. The “EPSC after LTD induction, %” value [7] was 68±13 % of baseline, the “Distance traveled in 15 min, open field” value (reserpine-treated mice [8]; mouse, in vivo) was “no significant decrease in catalepsy or increase in locomotor activity” and the “EPSC after LTD induction, %” value [2] was 69±9 % of baseline. For the same compound, the “EPSC, % of baseline at 20-30 min after brief DHPG application” value [4] was 84±6 % of baseline, the “Distance traveled in 15 min, open field” value (6-OHDA-treated mice [3]) was “no significant decrease in catalepsy or increase in locomotor activity” and the “Effect of drug alone on EPSC amplitudes / synaptic transmission” value (medium spiny neurons) was “no effect”.
For `Cc1c(C(=O)c2cccc3ccccc23)c2cccc3c2n1[C@H](CN1CCOCC1)CO3` [WIN55,212], the “EPSC, % of baseline at 15-20 min after wash-in” value (direct-pathway synapses [9]) was 56±8 % of baseline, the “EPSC, % of baseline at 15-20 min after wash-in” value ([10]; control mice) was 47±7 % of baseline and the “EPSC, % of baseline at 15-20 min after washing” value ([10]; dopamine-depleted animals (reserpine and 6-OHDA pooled)) was 58±5 % of baseline.
For `CN1CCN(CC(=O)N2c3ccccc3C(=O)Nc3cccnc32)CC1` [pirenzepine], the “Block of carbachol-induced inward membrane current” value (MSNs) was “block a carbachol-induced inward membrane current”.
In the case of `COC(=O)[C@H]1[C@H]2C[C@@H]3c4[nH]c5cc(OC)ccc5c4CCN3C[C@H]2C[C@@H](OC(=O)c2cc(OC)c(OC)c(OC)c2)[C@@H]1OC` [reserpine], the “Descent latency, catalepsy bar test” value (reserpine-treated mice [6]; reserpine 1 mg/kg i.p. 18-24 h before, URB597 1 mg/kg i.p., quinpirole 1.5 mg/kg i.p., alone or together, 60 s maximum, reserpine line = before drug) is given as “more than 60 s”, the Striatal dopamine (striatal dopamine) is given as < 1 % of normal levels and the “EPSC after LTD induction, %” value ([7]; mice given reserpine 5 mg/kg i.p. 18-24 h earlier, in bath quinpirole 10 μM, URB597 1 μM or URB754 5 μM, reserpine line = no drug in bath) is given as 122±8 % of baseline. The “Distance traveled in 15 min, open field” value (reserpine-treated mice [8]; reserpine 1 mg/kg i.p. 18-24 h before, URB597 1 mg/kg i.p., quinpirole 1.5 mg/kg i.p., 45-60 min after injection, reserpine line = before drug) was 48±11 cm.
For `CCN1CCCC1CNC(=O)c1cc(S(N)(=O)=O)ccc1OC` (centres unmarked) [sulpiride], the “EPSC after LTD induction, %” value [11] was 96±12 % of baseline.
